We go through 28 molecules from patent US20160060260A1, “BROMODOMAIN INHIBITORS FOR TREATING DISEASE” (Board of Regents, The University of Texas System, priority 2014, published 2016).

By IC50 is commonly meant the midpoint of a concentration-inhibition curve.

The target of the assay is T1, Recombinant human His-tagged Trim24-PHD-bromodomain (Homo sapiens, UniProt O15164).
T1 construct: Recombinant human His-tagged Trim24-PHD-bromodomain (produced in-house); made in house
T1 sequence (O15164 824-1006 limits assumed): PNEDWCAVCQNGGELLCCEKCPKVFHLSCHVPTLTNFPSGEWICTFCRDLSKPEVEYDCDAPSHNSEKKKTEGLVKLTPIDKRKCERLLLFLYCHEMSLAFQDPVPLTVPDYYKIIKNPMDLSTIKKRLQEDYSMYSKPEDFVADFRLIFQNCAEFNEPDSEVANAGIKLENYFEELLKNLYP
In words: Trim24 AlphaScreen Assay. It counts as binding. As to conditions: 5 nM Trim24 protein, 15 nM biotinylated H3K23ac (1-33aa) peptide. The procedure: Recombinant human His-tagged Trim24-PHD-bromodomain (produced in-house), biotinylated H3K23ac (1-33aa) peptide (AnaSpec, Inc.), and test compound were added to a 384-well OptiPlate (Perkin Elmer) and incubated at room temperature for one hour. The assay buffer consisted of 50 mM Hepes, pH 7.5, 100 mM NaCl, and 0.12 mM Triton X-100.
Streptavidin donor beads and nickel chelate acceptor beads, both from a Perkin Elmer AlphaScreen Histidine Detection Kit, were then added to the Optiplate to a final concentration of 10 ug/mL each. Following a 2 hour incubation at room temperature, the microplate was read on an Envision Plate Reader (Perkin Elmer). Percent of control (POC) values were calculated from the following formula:
POC=[sample signal-average background signal]/[average maximum signal−average background signal]*100
The average maximum signal was obtained from wells containing all assay components except test compound. The average background signal pertained to wells with all assay components except Trim24 and test compound. IC50 values were calculated using a four-parameter logistic curve fit.
On the technique in general: Alpha assays give light when donor and acceptor beads are brought close together.
As to `COc1ccc(S(=O)(=O)Nc2cc3c(cc2Oc2cccc(OCc4ccccc4)c2)n(C)c(=O)n3C)cc1OC` [Example 1, N-(6-(3-(benzyloxy)phenoxy)-1,3-dimethyl-2-oxo-2,3-dihydro-1H-benzo[d]imidazol-5-yl)-3,4-dimethoxybenzenesulfonamide], the half-maximal inhibitory concentration (IC50) lay in the range of 0.1 to 1 µM.

As for `Cc1n[nH]c(C)c1S(=O)(=O)Nc1cc2c(cc1Oc1cccc(OCc3ccccc3)c1)n(C)c(=O)n2C` [Example 2, N-(6-(3-(benzyloxy)phenoxy)-1,3-dimethyl-2-oxo-2,3-dihydro-1H-benzo[d]imidazol-5-yl)-3,5-dimethyl-1H-pyrazole-4-sulfonamide], the IC50 lay in the range of 0.1 to 1 µM. The value for `Cn1cnc(S(=O)(=O)Nc2cc3c(cc2Oc2cccc(OCc4ccc(Cl)nc4)c2)n(C)c(=O)n3C)c1` [Example 3, N-(6-(3-((6-chloropyridin-3-yl)methoxy)phenoxy)-1,3-dimethyl-2-oxo-2,3-dihydro-1H-benzo[d]imidazol-5-yl)-1-methyl-1H-imidazole-4-sulfonamide] was > 1 µM; that for `Cc1nc(S(=O)(=O)Nc2cc3c(cc2Oc2cccc(OCCC(C)C)c2)n(C)c(=O)n3C)cn1C` [Example 4, N-(6-(3-(isopentyloxy)phenoxy)-1,3-dimethyl-2-oxo-2,3-dihydro-1H-benzo[d]imidazol-5-yl)-1,2-dimethyl-1H-imidazole-4-sulfonamide] was 0.1 to 1 µM. As for `Cn1cnc(S(=O)(=O)Nc2cc3c(cc2Oc2cccc(OCCCCN)c2)n(C)c(=O)n3C)c1` [Example 5, N-(6-(3-(4-aminobutoxy)phenoxy)-1,3-dimethyl-2-oxo-2,3-dihydro-1H-benzo[d]imidazol-5-yl)-1-methyl-1H-imidazole-4-sulfonamide], the IC50 is 0.1 to 1 µM. As to `CCOc1cccc(Oc2cc3c(cc2NS(=O)(=O)c2cn(C)c(C)n2)n(C)c(=O)n3C)c1` [Example 6, N-(6-(3-ethoxyphenoxy)-1,3-dimethyl-2-oxo-2,3-dihydro-1H-benzo[d]imidazol-5-yl)-1,2-dimethyl-1H-imidazole-4-sulfonamide], the half-maximal inhibitory concentration (IC50) is 0.1 to 1 µM.

As to `CCCOc1cc(OCCCCCCN)cc(Oc2cc3c(cc2NS(=O)(=O)c2ccc(OC)c(OC)c2)n(C)c(=O)n3C)c1` [Example 7, N-(6-{3-[(6-aminohexyl)oxy]-5-propoxyphenoxy}-1,3-dimethyl-2-oxo-2,3-dihydro-1H-1,3-benzodiazol-5-yl)-3,4-dimethoxybenzene-1-sulfonamide], the half-inhibitory concentration (IC50) was 0.01 to 0.1 µM. In the case of `CN(C)CCCCOc1cccc(Oc2cc3c(cc2NS(=O)(=O)c2cn(C)cn2)n(C)c(=O)n3C)c1` [Example 9, N-(6-(3-(4-(dimethylamino)butoxy)phenoxy)-1,3-dimethyl-2-oxo-2,3-dihydro-1H-benzo[d]imidazol-5-yl)-1-methyl-1H-imidazole-4-sulfonamide 2,2,2-trifluoroacetate], the IC50 was > 1 µM. Consider `Cn1c(=O)n(C)c2cc(Oc3cccc(OCc4ccccc4)c3)c(NS(C)(=O)=O)cc21` [Example 11], for which the 50% inhibitory concentration (IC50) was > 1 µM.

As for `Cn1c(=O)n(C)c2cc(Oc3cccc(OCc4ccccc4)c3)c(NS(=O)(=O)C3CC3)cc21` [Example 12, N-(6-(3-(benzyloxy)phenoxy)-1,3-dimethyl-2-oxo-2,3-dihydro-1H-benzo[d]imidazol-5-yl)cyclopropanesulfonamide], the half-inhibitory concentration (IC50) is > 1 µM. As for `Cn1c(=O)n(C)c2cc(Oc3cccc(OCc4ccccc4)c3)c(NS(=O)(=O)c3ccccc3)cc21` [Example 13, N-(6-(3-(benzyloxy)phenoxy)-1,3-dimethyl-2-oxo-2,3-dihydro-1H-benzo[d]imidazol-5-yl)benzenesulfonamide], the IC50 was > 1 µM. In the case of `Cn1c(=O)n(C)c2cc(Oc3cccc(OCc4ccccc4)c3)c(NS(=O)(=O)c3cccnc3)cc21` [Example 14, N-(6-(3-(benzyloxy)phenoxy)-1,3-dimethyl-2-oxo-2,3-dihydro-1H-benzo[d]imidazol-5-yl)pyridine-3-sulfonamide] it was 0.1 to 1 µM; in that of `Cn1c(=O)n(C)c2cc(Oc3cccc(OCc4ccccc4)c3)c(NS(=O)(=O)c3ccc(F)cc3)cc21` [Example 15], > 1 µM; in that of `CC(C)COc1ccc(S(=O)(=O)Nc2cc3c(cc2Oc2cccc(OCc4ccccc4)c2)n(C)c(=O)n3C)cc1` [Example 16, N-(6-(3-(benzyloxy)phenoxy)-1,3-dimethyl-2-oxo-2,3-dihydro-1H-benzo[d]imidazol-5-yl)-4-isobutoxybenzenesulfonamide], > 1 µM. `COc1ccc(S(=O)(=O)Nc2cc3c(cc2Oc2cccc(OCc4ccccc4)c2)n(C)c(=O)n3C)cc1` [Example 17, N-(6-(3-(benzyloxy)phenoxy)-1,3-dimethyl-2-oxo-2,3-dihydro-1H-benzo[d]imidazol-5-yl)-4-methoxybenzenesulfonamide]: the concentration for half-maximal inhibition (IC50) fell in the range of 0.1 to 1 µM. Regarding `COc1cccc(S(=O)(=O)Nc2cc3c(cc2Oc2cccc(OCc4ccccc4)c2)n(C)c(=O)n3C)c1` [Example 18, N-(6-(3-(benzyloxy)phenoxy)-1,3-dimethyl-2-oxo-2,3-ddihydro-1H-benzo[d]imidazol-5-yl)-3-methoxybenzenesulfonamide], the IC50 lay in the range of 0.1 to 1 µM.

In the case of `COc1ccc(S(=O)(=O)Nc2cc3c(cc2Oc2cccc(OCc4ccc(Cl)nc4)c2)n(C)c(=O)n3C)cc1OC` [Example 20, N-(6-(3-((6-chloropyridin-3-yl)methoxy)phenoxy)-1,3-dimethyl-2-oxo-2,3-dihydro-1H-benzo[d]imidazol-5-yl)-3,4-dimethoxybenzenesulfonamide], the concentration for half-maximal inhibition (IC50) was > 1 µM. With `Cn1c(=O)n(C)c2cc(Oc3cccc(OCc4ccccc4)c3)c(NS(=O)(=O)c3ccsc3)cc21` [Example 21, N-(6-(3-(benzyloxy)phenoxy)-1,3-dimethyl-2-oxo-2,3-dihydro-1H-benzo[d]imidazol-5-yl)thiophene-3-sulfonamide], the concentration for half-maximal inhibition (IC50) is > 1 µM.

`Cn1c(=O)n(C)c2cc(Oc3cccc(OCc4ccccc4)c3)c(NS(=O)(=O)c3nnc[nH]3)cc21` [Example 22, N-(6-(3-(benzyloxy)phenoxy)-1,3-dimethyl-2-oxo-2,3-dihydro-1H-benzo[d]imidazol-5-yl)-4H-1,2,4-triazole-3-sulfonamide]: the half-maximal inhibitory concentration (IC50) lay in the range of 0.1 to 1 µM.

Take `Cc1nn(C)cc1S(=O)(=O)Nc1cc2c(cc1Oc1cccc(OCc3ccccc3)c1)n(C)c(=O)n2C` [Example 23, N-(6-(3-(benzyloxy)phenoxy)-1,3-dimethyl-2-oxo-2,3-dihydro-1H-benzo[d]imidazol-5-yl)-1,3-dimethyl-1H-pyrazole-4-sulfonamide]: the concentration for half-maximal inhibition (IC50) was in the range of 0.1 to 1 µM. As to `Cc1ccsc1S(=O)(=O)Nc1cc2c(cc1Oc1cccc(OCc3ccccc3)c1)n(C)c(=O)n2C` [Example 24, N-(6-(3-(benzyloxy)phenoxy)-1,3-dimethyl-2-oxo-2,3-dihydro-1H-benzo[d]imidazol-5-yl)-3-methylthiophene-2-sulfonamide], the IC50 is > 1 µM. Turning to `Cn1cc(S(=O)(=O)Nc2cc3c(cc2Oc2cccc(OCc4ccccc4)c2)n(C)c(=O)n3C)cn1` [Example 25, N-(6-(3-(benzyloxy)phenoxy)-1,3-dimethyl-2-oxo-2,3-dihydro-1H-benzo[d]imidazol-5-yl)-1-methyl-1H-pyrazole-4-sulfonamide], the IC50 is 0.1 to 1 µM. As to `Cc1nc(S(=O)(=O)Nc2cc3c(cc2Oc2cccc(OCc4ccccc4)c2)n(C)c(=O)n3C)cn1C` [Example 26, N-(6-(3-(benzyloxy)phenoxy)-1,3-dimethyl-2-oxo-2,3-dihydro-1H-benzo[d]imidazol-5-yl)-1,2-dimethyl-1H-imidazole-4-sulfonamide], the IC50 fell in the range of 0.1 to 1 µM. On to `COCCS(=O)(=O)Nc1cc2c(cc1Oc1cccc(OCc3ccccc3)c1)n(C)c(=O)n2C` [Example 27, N-(6-(3-(benzyloxy)phenoxy)-1,3-dimethyl-2-oxo-2,3-dihydro-1H-benzo[d]imidazol-5-yl)-2-methoxyethane-1-sulfonamide], for which the 50% inhibitory concentration (IC50) was > 1 µM.

As for `Cn1cnc(S(=O)(=O)Nc2cc3c(cc2Oc2cccc(OCc4ccccn4)c2)n(C)c(=O)n3C)c1` [Example 28, N-(1,3-dimethyl-2-oxo-6-(3-(pyridin-2-ylmethoxy)phenoxy)-2,3-dihydro-1H-benzo[d]imidazol-5-yl)-1-methyl-1H-imidazole-4-sulfonamide], the 50% inhibitory concentration (IC50) lay within 0.1 to 1 µM.

As to `COc1ccc(S(=O)(=O)Nc2cc3c(cc2Oc2cccc(OCc4ccccn4)c2)n(C)c(=O)n3C)cc1OC` [Example 29, N-(1,3-dimethyl-2-oxo-6-(3-(pyridin-2-ylmethoxy)phenoxy)-2,3-dihydro-1H-benzo[d]imidazol-5-yl)-3,4-dimethoxybenzenesulfonamide], the IC50 was in the range of 0.1 to 1 µM. As for `Cn1cnc(S(=O)(=O)Nc2cc3c(cc2Oc2cccc(OCc4ccncc4)c2)n(C)c(=O)n3C)c1` [Example 30, N-(1,3-dimethyl-2-oxo-6-(3-(pyridin-4-ylmethoxy)phenoxy)-2,3-dihydro-1H-benzo[d]imidazol-5-yl)-1-methyl-1H-imidazole-4-sulfonamide], the half-inhibitory concentration (IC50) is 0.1 to 1 µM.

`COc1ccc(S(=O)(=O)Nc2cc3c(cc2Oc2cccc(OCc4ccncc4)c2)n(C)c(=O)n3C)cc1OC` [Example 31, N-(1,3-dimethyl-2-oxo-6-(3-(pyridin-4-ylmethoxy)phenoxy)-2,3-dihydro-1H-benzo[d]imidazol-5-yl)-3,4-dimethoxybenzenesulfonamide]: the IC50 fell in the range of 0.1 to 1 µM.
